Reference: patent US20250034200A1, “Prodrugs of Neurosteroid Analogs and Uses Thereof” (priority 2021, published 2025)
Structures can show the parent of a compound that is named as a salt.

Assays:
[1] = test system: rat disease model of acute TBI; test: Edema assay in rat model of acute TBI (controlled cortical impact); assay type: in vivo; conditions: for reduced brain edema: 10 mg/kg IM at 1 and 6 h post-TBI, edema at 24 h
Description: A prodrug dose of 10 mg/kg was chosen and administered IM at 1 and 6 hours post-injury. Prodrug dosage is equimolar±5% with respective to the parent compound.
Subjects—Male SD rats weighing 250-350 g at the time of injury were used for the efficacy study, which was conducted in our facility at Emory University. The rats were maintained on a reverse 12:12 light-dark cycle at 22±1° C. with appropriate humidity levels. After one week of quarantine the rats were handled at least 3 times prior to surgery. This study was conducted in a facility approved by the American Association for the Accreditation of Laboratory Animal Care (AAALAC) in accordance with all National Institutes of Health guidelines. All experimental animal procedures were approved by the Emory University Institutional Animal Care and Use Committee.
Contusion Injury—Rats were anesthetized using isoflurane gas (5% induction, 1.5% maintenance, 700 mmHg N2O, 500 mmHg O2) and then mounted in a Kopf stereotaxic device (David Kopf Instruments, Tujunga, CA, USA). The scalp incision area was shaved and sterilized with Betadine® antiseptic and 70% isopropanol. Physiological parameters were monitored with pulse oximetry (SurgiVet model V3304): heart rate was maintained above ˜300 beats per minute and SpO2 kept above 90%. Core body temperature (˜37° C.) was maintained with a homeothermic heating blanket system (Harvard Apparatus, Holliston, MA, USA). Under aseptic conditions, a midline incision was made into the skin and fascia covering the skull. Cotton swabs were used to staunch and clean any fascial bleeding. […]
Treatment—Animals were randomly assigned to one of four treatment groups. […] Percent change in brain tissue water content was measured.
Edema Assay—Edema was measured at 24 h after surgery. […] The percent water content was calculated by [(wet wt-dry wt)/wet wt]×100. The percent difference in water content between the anterior peri-contusional and the posterior distal section was calculated for each sample by: [(anterior H2O %-posterior H2O %)/(posterior H2O %)]×100.

[2] = Aqueous stability assay (HPLC, pseudo first-order half-life); assay type: physicochemical; conditions: for stability in the acidic aqueous mediums: pH 4.0 and 5.5
[3] = Plasma stability assay (LC-MS/MS); assay type: in vitro ADME; conditions: for formation of the corresponding oxime (progesterone C20-oxime) / half-life: human plasma; for half-life: 37° C., 3 μM, read-out: Plasma t1/2 (converted)
In short: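 Compound (3 μM final; 0.03% DMSO, up to 0.6% methanol) was incubated in human plasma at 37° C for up to 240 min, sampled at 0, 15, 30, 60, 120, 180 and 240 min in duplicate. Samples were quenched in cold acetonitrile or methanol with internal standard and quantified by LC-MS/MS (ESI+, MRM). Stability was derived from the slope of ln(% parent remaining) versus time.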

[4] = Rat plasma pharmacokinetic study; conditions: IV and IM routes
Description: Test System—Healthy male Sprague Dawley rats (8-12 weeks old) weighing between 200 to 250 g were procured from Global, India. […] Temperature and humidity were maintained at 22±3° C. and 30-70%, respectively and illumination was controlled to give a sequence of 12 h light and 12 h dark cycle. Temperature and humidity were recorded by auto-controlled data logger system. All the animals were provided with laboratory rodent diet (Envigo Research private Ltd, Hyderabad). Reverse osmosis water treated with ultraviolet light was provided ad libitum.
Design—Rats (n=3 per treatment group, serial sampling) were administered a solution of either normal saline vehicle or test compound in normal saline at 2 mg/kg (IV) or 10 mg/kg (IM) with a dosing volume of 5 mL/kg (IV) or 1 mL/kg (IM).
Sample Collection—Blood samples (approximately 60 μL) were collected under light isoflurane anesthesia (Surgivet®) from retro orbital plexus from a set of three rats at 0.08, 0.25, 0.5, 1, 2, 4, 6, 8 and 10 h (IV) or 0.25, 0.5, 1, 2, 4, 6, 8 and 10 h (IM). Immediately after blood collection, plasma was harvested by centrifugation 4000 rpm, 10 min at 40° C. and samples were stored at −70±10° C. until bioanalysis.
Data Analysis—Concentrations of the test compound and its parent compound, progesterone C20-oxime, in rat plasma were determined by fit-for-purpose LC-MS/MS method by Sai Life Sciences. […] Cmax represents the mean observed maximum concentration of analyte. Tmax represents the average time at observed Cmax. Areas under the curve (AUC0-last) were calculated via the linear trapezoidal rule using GraphPad Prism v9.

[5] = Nephelometry (aqueous solubility); assay type: physicochemical; conditions: DPBS with 1% DMSO, aqueous buffer, kinetic from dmso stock, DPBS pH 7.0-7.3, 1% DMSO, 25° C.
Text: Well A1 of the plate contained 100% DMSO.

[6] = acetate buffer pH 4.0, read-out: Acetate buffer (pH 4.0) t1/2 (converted)
[7] = acetate buffer pH 5.5, read-out: Acetate buffer (pH 5.5) t1/2 (converted)

SMILES	reduced brain edema [1]	reducing brain edema, comparison with EIDD-1723 ([1]; 10 mg/kg dose IM)	half-life [2, 6]	half-life [2, 7]	half-life ([2]; buffer, DPBS pH 7.0-7.3, 1 mg/mL, room temperature, read-out: PBS t1/2 (converted))	stability in the acidic aqueous mediums [2]	stability in human plasma [3]	formation of the corresponding oxime (progesterone C20-oxime) [3]	half-life [3]	formation of parent progesterone C20-oxime [4]	PBS t1/2 ([2]; DPBS pH 7.0-7.3, 1 mg/mL, room temperature)	solubility at 90 min [5]
C/C(=N\OC(=O)N(C)C[C@@H]1CCCN1)[C@H]1CCC2[C@@H]3CCC4=CC(=O)CC[C@]4(C)[C@H]3CC[C@@]21C.Cl (stereo partly drawn) [32j, (8S,9S,10R,13S,17S)-10,13-dimethyl-17-((E)-1-(((methyl(((S)-pyrrolidin-2-yl)methyl)carbamoyl)oxy)imino)ethyl)-1,2,6,7,8,9,10,11,12,13,14,15,16,17-tetradecahydro-3H-cyclopenta[a]phenanthren-3-one hydrochloride]	40%	equally efficacious	48 days	2.4 days	0.0792 ± 0.00417 days	stable	unstable	observed	< 0.1 h	rapid and extensive	–	–
CNCCN(C)C(=O)O/N=C(\C)[C@H]1CC[C@H]2[C@@H]3CCC4=CC(=O)CC[C@]4(C)[C@H]3CC[C@]12C [32b, (E)-9-((8S,9S,10R,13S,14S,17S)-10,13-dimethyl-3-oxo-2,3,6,7,8,9,10,11,12,13,14,15,16,17-tetradecahydro-1H-cyclopenta[a]phenanthren-17-yl)-5-methyl-7-oxa-2,5,8-triazadec-8-en-6-one hydrochloride]	31%	–	96 days	80 days	–	stable	unstable	observed	1.5 h	–	46.9 ± 0.8 h	> 750 µM
